Measurements as given in patent US20240139158A1, “METHODS OF TREATING PULMONARY DISEASES AND DISORDERS” (Proteostasis Therapeutics, Inc., priority 2015, published 2024).

Biological target: T1, CFTR, genotype Non-CF (“wild-type”/“wild-type”) (Homo sapiens, UniProt P13569)
T1 construct: Non-CF; endogenous in cells
Test: Activity by CFTR genotype with compound A (Example 79, Table 2)
Assay type: cell-based
Conditions: Relative Activity of 100% = Vehicle treated, 10 uM
Procedure: Table 2 indicates mutation type and activity with compounds/combination with compound A. ## indicates activity at 30 uM of 50% to <100% of the indicated relative activity treatment, #### indicates activity at 30 uM of ≥150% of the indicated relative activity treatment, + indicates activity at 10 uM of 15% to <50% of the indicated relative activity treatment, ++ indicates activity at 10 uM of 50% to <100% of the indicated relative activity treatment, +++ indicates activity at 10 uM of 100% to <150% of the indicated relative activity treatment, ++++ indicates activity at 10 uM of >150% of the indicated relative activity treatment. NB124 is used at 250 ug/ml, ivacaftor is used at 1 uM, lumacaftor is used at 3 uM, and VX-661 is used at 3 uM.

T1 sequence (P13569 whole entry): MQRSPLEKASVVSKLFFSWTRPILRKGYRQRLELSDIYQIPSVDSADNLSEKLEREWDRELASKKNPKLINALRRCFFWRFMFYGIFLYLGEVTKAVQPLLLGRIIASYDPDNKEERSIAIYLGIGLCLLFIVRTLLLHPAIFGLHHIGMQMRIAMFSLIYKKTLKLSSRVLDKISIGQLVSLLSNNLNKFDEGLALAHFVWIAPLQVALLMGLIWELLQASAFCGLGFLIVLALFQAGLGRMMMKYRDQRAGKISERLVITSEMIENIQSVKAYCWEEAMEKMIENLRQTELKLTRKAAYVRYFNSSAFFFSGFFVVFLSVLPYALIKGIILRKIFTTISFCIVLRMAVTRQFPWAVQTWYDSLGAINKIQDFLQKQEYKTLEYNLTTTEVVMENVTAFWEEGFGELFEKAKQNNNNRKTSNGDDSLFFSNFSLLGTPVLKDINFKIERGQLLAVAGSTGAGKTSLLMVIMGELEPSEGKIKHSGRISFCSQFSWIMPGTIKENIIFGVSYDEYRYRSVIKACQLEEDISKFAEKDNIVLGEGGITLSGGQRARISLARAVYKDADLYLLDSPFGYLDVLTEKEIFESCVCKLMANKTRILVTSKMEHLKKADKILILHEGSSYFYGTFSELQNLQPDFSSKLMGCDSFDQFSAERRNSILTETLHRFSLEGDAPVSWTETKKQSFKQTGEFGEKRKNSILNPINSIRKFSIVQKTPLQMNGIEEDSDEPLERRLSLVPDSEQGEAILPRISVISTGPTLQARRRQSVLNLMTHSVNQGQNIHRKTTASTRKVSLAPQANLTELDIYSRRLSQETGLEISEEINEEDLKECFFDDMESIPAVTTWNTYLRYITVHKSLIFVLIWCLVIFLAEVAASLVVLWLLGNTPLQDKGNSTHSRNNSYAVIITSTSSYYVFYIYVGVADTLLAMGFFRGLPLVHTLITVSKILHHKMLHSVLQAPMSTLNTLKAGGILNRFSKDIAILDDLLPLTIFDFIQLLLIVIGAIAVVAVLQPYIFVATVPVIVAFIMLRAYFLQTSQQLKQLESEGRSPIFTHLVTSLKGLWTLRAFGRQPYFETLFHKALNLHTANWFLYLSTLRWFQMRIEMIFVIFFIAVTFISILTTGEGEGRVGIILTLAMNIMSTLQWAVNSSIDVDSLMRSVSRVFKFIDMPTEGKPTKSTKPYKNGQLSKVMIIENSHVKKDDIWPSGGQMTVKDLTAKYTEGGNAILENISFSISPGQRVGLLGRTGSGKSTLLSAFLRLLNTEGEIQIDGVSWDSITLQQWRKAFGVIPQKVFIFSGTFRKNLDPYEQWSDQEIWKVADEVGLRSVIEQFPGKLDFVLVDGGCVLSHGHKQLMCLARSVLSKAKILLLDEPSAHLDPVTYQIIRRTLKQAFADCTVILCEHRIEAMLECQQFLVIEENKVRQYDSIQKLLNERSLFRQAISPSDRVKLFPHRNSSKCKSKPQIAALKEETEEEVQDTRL

C[C@@H](O)c1nnc(C2CC(NC(=O)c3cc(-c4ccccc4)no3)C2)o1 (stereo partly shown) [Compound A]
Stand Alone activity: +++ (activity at 10 uM of 100% to <150% of the indicated relative activity treatment)
